PubChem BioAssay (NCI)
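Dose response: 5 concentrations. Exposure: 48 h. Format: 96-well plates. Endpoint: linear interpolation; highest concentration if not reached. TGI: total growth inhibition.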

Legend:
Test in all cases: NCI tumour cell line growth inhibition, 48 h
[1] = system: KM20L2 colon
[2] = system: P388/ADR leukemia
[3] = system: P388 leukemia
[4] = system: OVCAR-4 ovarian
[5] = system: DLD-1 colon
[6] = system: DMS 273 small cell lung
[7] = system: SNB-78 CNS
[8] = system: SN12K1 renal
[9] = system: MCF7 breast
[10] = system: HOP-18 NSCLC
[11] = system: IGROV1 ovarian
[12] = system: XF 498 CNS
[13] = system: DMS 114 small cell lung
[14] = system: M19-MEL melanoma
[15] = system: RXF-631 renal
[16] = system: LXFL 529 NSCLC
[17] = system: TK-10 renal

Structure (SMILES)	TGI [1] [µM]	TGI [2] [µM]	TGI [3] [µM]	TGI [4] [µM]	TGI [5] [µM]	TGI [6] [µM]	TGI [7] [µM]	TGI [8] [µM]	TGI [9] [µM]	TGI [10] [µM]	TGI [11] [µM]	TGI [12] [µM]	TGI [13] [µM]	TGI [14] [µM]	TGI [15] [µM]	TGI [16] [µM]	TGI [17] [µM]
CC(C)NC(=O)OCc1c(CO)c2c(n1C)-c1ccccc1CC2	> 84.5	53.9	32.7	73	46.4	62.4	86.7	35.1	> 100	70.1	> 77.6	31.3	40.7	59.3	–	–	–
CSc1nc(NC2OC(COC(C)=O)C(OC(C)=O)C(OC(C)=O)C2OC(C)=O)c2c(n1)OCC2=O (stereo not given)	> 100	–	–	> 100	> 100	–	> 100	–	–	> 100	> 100	–	> 100	> 100	> 100	> 100	> 100
CC1=C(O)C(=O)C2C(=O)C1C1Cc3ccccc3C21 (stereo not given)	–	–	–	> 100	> 100	> 100	> 100	–	–	–	> 100	> 100	–	> 100	> 100	> 100	> 100
